Values of other authors in patent US20060160157A1, “Method, compositions and classification for tumor diagnostics and treatment” (priority 2005, published 2006).

Assays:
[1] = pH change 7.5 to 4.0
[2] = target: GRP-R (Homo sapiens, UniProt P30550); settings: radiolabeled bombesin as radioligand
GRP-R, sequence (P30550 whole entry, species assumed): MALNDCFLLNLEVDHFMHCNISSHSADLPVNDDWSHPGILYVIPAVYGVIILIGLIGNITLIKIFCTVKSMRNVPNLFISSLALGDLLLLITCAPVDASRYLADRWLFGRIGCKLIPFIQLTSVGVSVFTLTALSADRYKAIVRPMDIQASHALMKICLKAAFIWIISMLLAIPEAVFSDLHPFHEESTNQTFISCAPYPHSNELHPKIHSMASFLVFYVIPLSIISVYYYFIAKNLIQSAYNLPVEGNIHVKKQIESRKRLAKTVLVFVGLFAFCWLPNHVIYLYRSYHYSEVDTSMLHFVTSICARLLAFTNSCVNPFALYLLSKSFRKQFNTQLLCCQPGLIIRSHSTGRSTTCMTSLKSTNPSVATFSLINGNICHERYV

Row | Substance | change in the ka rate constant (association) [1] [times] | change in the kd rate constant (dissociation) [1] | GRP-R binding selectivity (rank order of affinity) [2]
1 | growth hormone | 1.7 | 1,600 times | –
2 | neuromedin | – | – | GRP >bombesin> neuromedin
